From a melting point compilation (Tetko et al.; mined from patent text by program, amines drawn as free bases though some values may be those of a salt) come the findings set out here.

A word on the melting point: it is the temperature, or range, at which the solid turns liquid. `CC=Cn1c(C(F)(F)F)nn(-c2c([N+](=O)[O-])cc(C(F)(F)F)cc2[N+](=O)[O-])c1=O`: the melting point came out at 136 °C.

`O=C(Nc1cccc2c3c(oc12)CCS(=O)C3)c1c(Cl)cccc1Cl` (configuration not stated) showed a melting point greater than 250 °C.

Turning to `CC(C)S(=O)(=O)Nc1ccc(Br)cc1`, the melting point fell in the range of 98 to 100 °C.

The molecule `COc1ccc(NC(=S)NCCO)c(C)c1` had a melting point of 171 to 174 °C.

In turn, `CCC(=O)N(CC)c1cccc(-c2ccc3nnc(NC)n3n2)c1` had a melting point of 172 to 173 °C.

On to `O=C1NC(=O)c2c1ccc1[nH]c3ccc(O)cc3c21`, for which the melting point fell in the range of 335 to 345 °C.

`COC(=O)c1ccc(-c2ccncc2)cc1`: the melting point lay in the range of 99 to 101 °C.

As to `COc1ccc2c(c1)C(=O)C(=Cc1cccc([N+](=O)[O-])c1)CO2`, the melting point was in the range of 157 to 159 °C.

The molecule `Cc1cc(NC2=NCCN2)n(C)n1` registered a melting point of 167 to 169 °C.

In the case of `Cc1ccc(-c2ccc(C(=O)Nc3ccc4nc(CN5C(C)(C)CCCC5(C)C)ccc4c3)cn2)cc1`, the melting point lay in the range of 246 to 247 °C.

`N#Cc1nn(-c2c(Cl)cc(C(F)(F)F)cc2Cl)cc1C1C=CCC1` (configuration not stated) registered a melting point of 76 to 80 °C.

In the case of `COC(=O)OC[C@@H]1CC(c2ccc(-c3ccc(N4C[C@H](Cn5ccnn5)OC4=O)cc3F)cn2)=NO1`, the melting point worked out at 205 °C.

The molecule `CC(C)N[C@H](C(=O)O)C(C)C` gave a melting point greater than 300 °C.

Molecule `CN(C(=O)CC(CCN1CCC(Cc2ccccc2)CC1)c1ccc(Cl)c(Cl)c1)c1ccc(Cl)cc1` (configuration not stated) came in with a melting point of 67 to 72 °C.

`Cc1oc(-c2ccccc2)nc1COc1ccc(CON=C(CC(N)=O)c2ccccc2)cc1` registered a melting point of 164 to 165 °C.

`O=C(CC1(c2cccc(C(F)(F)F)c2F)CC1)C(=O)Nc1ccc2c(c1)COC2=O` displayed a melting point of 165 to 166 °C.

With `COCC1OC(n2cnc3c(N)ncnc32)C(O)C1O` (configuration not stated), the melting point was 112 to 114 °C.

Take `O=C(Nc1ccc2ccc(Cl)nc2n1)c1c(F)cccc1F`: the melting point came out at 242 °C.

In turn, `CC(C)C(=O)NC1C=CC(CO)C1` (configuration not stated) gave a melting point of 80 to 81 °C.

`CC(=O)C(=CNc1cc(Cl)c(Cl)c(C(=O)O)c1Cl)C(C)=O` yielded a melting point of 242 to 244 °C.

For the molecule `CC(C)Cn1nnc2cc3c(=O)n(C(C)Cn4ncnn4)nnc3cc2c1=O` (configuration not stated), the melting point was 132 to 134 °C.

Molecule `Cc1nc2cc(-c3ccc(C=C4SC(=O)NC4=O)cn3)cc(C3CCCCC3)c2o1` displayed a melting point of 314 to 316 °C.

`O=C(c1ccco1)c1cnn2c(-c3cccc(N4CCCC4=O)c3)ccnc12` returned a melting point of 210 to 211 °C.

`O=CNc1cccc(-c2ccnc3c(C(=O)c4cccs4)cnn23)c1`: the melting point is 233 to 236 °C.

In the case of `CC1(c2ccc(Cl)c(Cl)c2)CN(C(=O)c2ccc(F)c3ccccc23)CCN1C(=O)CNC1CCN(Cc2ccccc2)CC1` (racemic), the melting point was in the range of 93 to 96 °C.

`COc1cc2ncnc(N3CCN(C(=O)Nc4ccncc4)CC3)c2cc1OC` showed a melting point of 141 to 143 °C.

As for `COc1cc2c(c(Br)c1OC(C)=O)Sc1cc(F)ccc1N2`, the melting point fell in the range of 224 to 226 °C.

`O=C1[C@H]2CCC[C@H]2Nc2ccccc2N1Cc1cccc2ccccc12` (relative stereo) returned a melting point of 126 to 128 °C.

The molecule `NC(=O)c1ccc(F)c2c1CC(NCCCc1c[nH]c3c(Cl)cccc13)CO2` (configuration not stated) yielded a melting point of 222 to 224 °C.

With `O=C1OC2(CCCCC2)OC(=O)C12CC2`, the melting point was 134 to 135 °C.

On to `COc1cc(O)c(C=O)cc1C12CC3CC(CC(C3)C1)C2`, for which the melting point lay in the range of 191 to 193 °C.

The molecule `Cc1coc(C)c1N(C)c1cc(Br)cc2c1nc(C)n2C` had a melting point of 207 to 208 °C.

`Cc1cc2c(Cl)c([N+](=O)[O-])cnc2s1` came in with a melting point of 96 to 98 °C.

Consider `CC(O)CCCCc1ccc(-c2ccccc2)cc1` (configuration not stated), for which the melting point lay in the range of 71 to 72 °C.

Consider `Cc1cccc2c(=O)n(CCCN3CC=C(c4ccc(Cl)cc4)CC3)c(=O)[nH]c12`, for which the melting point lay within 215 to 217 °C.

For `C=CCCC(O)=C(C#N)C(=O)Nc1ccc(C(F)(F)F)cc1`, the melting point stood at 145 °C.

`CCOC(=O)CCc1cc(Cl)ccc1C(=O)CCCNC(N)=O`: the melting point fell in the range of 127 to 129 °C.

On to `COc1ccc(Oc2c([N+](=O)[O-])cc(C(=O)O)cc2S(N)(=O)=O)cc1`, for which the melting point is 229 to 230 °C.

As to `COc1ccc(N2CCN(c3c(C)c(C)c4c(c3C)C(O)(c3ccc(C)cc3)C(C)(C)O4)CC2)cc1` (configuration not stated), the melting point is 145 to 147 °C.

For `Cn1c(=O)sc2nc(-c3ccccc3)cn2c1=O`, the melting point lay in the range of 228 to 229 °C.

With `CCC(CC)N(O)C(=O)NCCCCCCCCNC(=O)N(O)C(CC)CC`, the melting point lay within 89 to 90 °C.

As for `O=[N+]([O-])c1ccc2c(C3=CCN(C[C@H](O)COc4cccc5[nH]ccc45)CC3)c[nH]c2c1`, the melting point was 225 to 230 °C.

`COc1ccc(Sc2ccc3c(c2)CCC2N(C)C(=O)CCC32C)cc1` (single isomer, unassigned; (+)) had a melting point of 150 to 151 °C.

`C[C@@H](N(CC(=O)O)C(=O)c1ccc(C(F)(F)F)cc1F)[C@](O)(Cn1cncn1)c1ccc(F)cc1F` (relative stereo) returned a melting point of 191 to 192 °C.

In turn, `COc1ccc(C(CN(C)C)C2CCCCC2O)cc1` (configuration not stated) displayed a melting point of 77 to 79 °C.

`CS(=O)(=O)c1ccc(-n2nc(C(F)(F)F)cc2-c2ccc(-c3ccco3)cc2)cc1Cl` registered a melting point of 139 to 142 °C.

In the case of `COC(=O)C1CCc2cc(C(=O)c3ccccc3)c(OC)cc21` (configuration not stated), the melting point lay within 126 to 128 °C.

`COc1ccc(O[C@@H]2CCNC[C@H]2O)c(Br)c1` (relative stereo) had a melting point of 132 to 135 °C.

In turn, `CCN1C(=O)C(NC(=O)C(F)(F)F)CCc2c1ccc(Nc1ncc(Cl)c(Nc3ccccc3S(=O)(=O)N(C)C)n1)c2OC` (configuration not stated) had a melting point of 250 to 251 °C.

Molecule `Cc1ccc(S(=O)(=O)N2CCC[C@H]2C(=O)N[C@@H](Cc2ccc(NC(=S)NCCN3CCCCC3)cc2)C(=O)O)cc1` came in with a melting point of 148 to 158 °C.

As for `Fc1ccc2c(c1)NCc1c(-c3noc(C4CC4)n3)ncn1-2`, the melting point lay within 263 to 265 °C.

The molecule `Cn1c(C(=O)NN)nc2ccccc21` showed a melting point of 156 to 159 °C.

`C#CCn1c2ccccc2c2sccc(=O)c21` displayed a melting point of 144 °C.

For `O=C(O)CC1CCN(c2ccc3c(NC(=O)CC4CCCCC4)c(Cl)ccc3n2)CC1`, the melting point is 242 to 244 °C.

`O=c1ccnc(NCCCN(Cc2ccccc2)c2ccccn2)[nH]1` showed a melting point of 162 to 163 °C.

Consider `O=C(O)Cc1c(C(=O)c2ccc(OC(F)(F)F)cc2)[nH]c2cc(Cl)ccc12`, for which the melting point fell in the range of 166 to 168 °C.

`CCCCCCCCCCCCCCCCCCOC(=O)CCC(=O)OC1CC(C)(C)N(C)C(C)(C)C1` showed a melting point of 38 to 40 °C.

Molecule `COc1cc2c(cc1C(=O)O)OCO2` returned a melting point of 151 °C.

Regarding `Cc1cc(N)c(C)c(/C=C/C(=O)O)c1`, the melting point amounted to 185 °C.

As for `O=c1[nH]c2cc(Cl)ccc2c(=O)c(-c2ccccc2)c1O`, the melting point fell in the range of 193 to 196 °C.

Take `O=c1c2ccc3[nH]cc(CCNS(=O)(=O)c4ccccc4)c3c2ccn1Cc1ccccc1`: the melting point is 205 to 206 °C.

With `N#Cc1cc(C(F)(F)F)[nH]c1-c1ccc(C=O)o1`, the melting point is 224 to 225 °C.

Turning to `O=C(Nc1cccc(-n2nc(C(F)(F)F)cc2C(F)(F)F)c1)c1cccc(Cl)c1Cl`, the melting point was 119 to 121 °C.

As to `CC(=NNC(=O)c1ccncc1)c1ccc2nnn(Cc3ccc4ncccc4c3)c2n1`, the melting point is 239 to 241 °C.

On to `CCc1nc2cc(/C=C/C(=O)NO)ccc2c(=O)n1CCc1ccccc1`, for which the melting point fell in the range of 209 to 211 °C.

On to `NC(=S)N1CCSC1c1ccccc1OCCN1CCN(c2cccc(F)c2)CC1` (configuration not stated), for which the melting point fell in the range of 136 to 137 °C.

As to `C=C1CC2(CC)C(=O)CC(O)C2C2CCC3=CC(=O)CCC3C12` (configuration not stated), the melting point worked out at 228 °C.

`COc1c(C=NO)ccc(Cl)c1Cl` had a melting point of 82 to 83 °C.

The molecule `Cc1ccc(C)c(OC(=O)c2c3ccccc3nc3ccccc23)c1` displayed a melting point of 187 to 190 °C.

For `CN1CCN(c2cc3ccccc3cn2)CC1`, the melting point is 93 to 94 °C.

For the molecule `CC(=O)OC1OCC[C@@H]1NC(=O)CCC(=O)Nc1ccc(Nc2ccccc2)cc1` (some centres not stated), the melting point lay within 191 to 192 °C.

Molecule `Cn1nc(C(F)(F)F)c(C(=O)CC#N)c1Cl` registered a melting point of 103 to 105 °C.

In the case of `COc1cc2oc(=O)c(CCN3CCC(c4ccccc4)CC3)c(C)c2c(OC)c1OC`, the melting point was 117 to 118 °C.

Turning to `COc1cc(OC)c2c(=O)[nH]c(-c3ccc(OCCO)c(OC)c3)nc2c1`, the melting point was 246 to 248 °C.

The molecule `CCCc1nn(-c2ccc(C(F)(F)F)cc2)cc1CCCOc1c(CC(=O)O)cccc1OC` had a melting point of 95 to 96 °C.

In turn, `CCOC(=O)c1cn(-c2cc(NC(=O)OC(C)(C)C)c(F)cc2F)c2c(C)c(F)c(F)c(C)c2c1=O` showed a melting point of 141 to 142 °C.

Turning to `CCOc1ccc(-c2ccc3c(c2)C=C(C(=O)O)CCO3)cc1`, the melting point lay within 269 to 271 °C.

On to `CCCc1nn(C)c2c(=O)n(CCCOc3ccc(OC(C)(C)C(=O)O)cc3)c(CC)nc12`, for which the melting point is 124 to 126 °C.

For the molecule `CC(C)(C)COC(=O)COc1ccc(C(=O)CBr)cc1`, the melting point lay within 85 to 87 °C.

For the molecule `N#Cc1cccc(C2=Nc3ccc(C#Cc4ccccc4F)cc3NC(=O)C2)c1`, the melting point was 213 to 214 °C.

Take `COC(=O)c1ccc(S(C)(=O)=O)c(CBr)c1Cl`: the melting point lay in the range of 77 to 78 °C.

For the molecule `COc1cc(N)c(Cl)cc1C(=O)N[C@H]1CCN(CCCC(=O)c2cccnc2)C[C@H]1OC` (relative stereo), the melting point is 166 °C.

`COC(=O)c1ccc2c(CCCNc3ccccn3)nn(C)c2c1`: the melting point lay within 101 to 104 °C.

The molecule `CC1CN(c2ccc(C(=O)C(F)(F)F)cc2)N=C1NC(=O)C(F)(F)F` (configuration not stated) came in with a melting point of 203 to 204 °C.

In the case of `Cc1cc(C=C2SC(=S)NC2=O)cc(C(C)(C)C)c1O`, the melting point is 210 to 216 °C.

Take `O=C1c2ccccc2C(=O)N1CC(=O)N1c2ccccc2N(Cc2cccc([N+](=O)[O-])c2)C(=O)[C@H]2CCC[C@H]21` (relative stereo): the melting point lay within 250 to 252 °C.

The molecule `COC(=O)COc1ccc(NC(=O)NC(=O)c2ccc(C#N)cc2)cc1` yielded a melting point of 214 to 217 °C.
